From patent EP2406206B1, “TETRAHYDRONAPHTHALEN-2-OL DERIVATIVES” (MSD Oss B.V., priority 2009, dated 2010)

Tests used:
[1] = molecular target: human estrogen receptor β receptor (hERβ) (Homo sapiens, UniProt Q92731); assay: ERβ transactivation bioassay in recombinant CHO cells (rat oxytocin promoter, luciferase reporter); format: cell-based; conditions: for ERβ/ERα ratio: ERβ agonistic selectivity over ERα, transactivation data; for EC50: transactivation of luciferase via hERβ in CHO cells, read-out: ERβ agonistic EC50; for ERβ eudismic ratio: ratio of the activities of the eutomer and the distomer on ERβ
Chain of human estrogen receptor β receptor (hERβ) (Q92731 whole entry): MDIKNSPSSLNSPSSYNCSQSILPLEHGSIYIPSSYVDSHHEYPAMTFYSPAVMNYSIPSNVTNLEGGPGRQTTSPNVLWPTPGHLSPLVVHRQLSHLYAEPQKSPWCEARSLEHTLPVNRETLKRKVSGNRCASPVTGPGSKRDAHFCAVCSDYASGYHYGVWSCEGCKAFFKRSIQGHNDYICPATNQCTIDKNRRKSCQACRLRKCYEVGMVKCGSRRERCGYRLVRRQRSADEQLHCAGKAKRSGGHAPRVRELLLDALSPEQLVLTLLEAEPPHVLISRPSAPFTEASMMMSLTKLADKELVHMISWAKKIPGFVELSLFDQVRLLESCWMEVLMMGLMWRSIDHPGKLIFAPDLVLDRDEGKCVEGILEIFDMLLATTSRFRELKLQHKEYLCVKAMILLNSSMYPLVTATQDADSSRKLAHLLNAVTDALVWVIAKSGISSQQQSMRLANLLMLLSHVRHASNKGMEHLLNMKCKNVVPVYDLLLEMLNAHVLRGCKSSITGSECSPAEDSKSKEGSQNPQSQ
Method: (§1) The estrogenic and antiestrogenic activity of compounds was determined in an in vitro bioassay with recombinant Chinese hamster ovary (CHO) cells stably co-transfected with the human estrogen receptor α (hERα) or β receptor (hERβ), the rat oxytocin promoter (RO) and the luciferase reporter gene (LUC). The estrogenic activity of a test compound to stimulate the transactivation of the enzyme luciferase mediated via the estrogen receptors hERα or hERβ is expressed in nM. The assay was performed as described by De Gooyer et al., Steroids 68 (2003), 21-30. Table 7. ERβ and ERα transactivation data

[2] = metabolic stability in human hepatocytes; format: in vitro ADME; conditions: cryopreserved human hepatocytes in suspension, tetrahydronaphthalen-2-ol, 37°C, sampled 0-120 min, LC-MS/MS, read-out: Human hepatocyte T1/2
Method: A number of compounds 9, 11 and 12 were tested on metabolic stability in human hepatocytes. The hepatic stability was compared to corresponding chroman compounds 25, 26 or 27 (see structures below).
Test compounds were diluted to 3 µM in incubation medium. Then 40 µl of the 3 µM test compounds was pipetted into a 96 well microtiter plate (flat bottom). Hepatocytes (stored at -140 °C) were thawed in a 37°C water bath. The cells were resuspended into pre-warmed thawing medium and were centrifuged for 5 minutes at 50g at room temperature. The supernatant was discarded and the remaining cell pellet was resuspended in warm incubation medium and diluted to 7.5 E5 cells/ml. Then 80 µl of the cell suspension was added to each well of the 96 well microtiter plate containing the test compounds. The resulting mixture was incubated at 37°C and was sampled at t=0, 5, 30, 60, and 120 min. The samples were analyzed by LC-MS/MS to determine the content of unchanged test compound. Based on the rate of reduction of the content of test compound over time, the half-live (T1/2) was calculated. Metabolic stability in human hepatocytes

[3] = molecular target: T1, human estrogen receptor α (hERα) (Homo sapiens, UniProt P03372); assay: ERα transactivation bioassay in recombinant CHO cells (rat oxytocin promoter, luciferase reporter); format: cell-based; conditions: ratio of the activities of the eutomer and the distomer on ERα
T1 sequence (P03372 1-595): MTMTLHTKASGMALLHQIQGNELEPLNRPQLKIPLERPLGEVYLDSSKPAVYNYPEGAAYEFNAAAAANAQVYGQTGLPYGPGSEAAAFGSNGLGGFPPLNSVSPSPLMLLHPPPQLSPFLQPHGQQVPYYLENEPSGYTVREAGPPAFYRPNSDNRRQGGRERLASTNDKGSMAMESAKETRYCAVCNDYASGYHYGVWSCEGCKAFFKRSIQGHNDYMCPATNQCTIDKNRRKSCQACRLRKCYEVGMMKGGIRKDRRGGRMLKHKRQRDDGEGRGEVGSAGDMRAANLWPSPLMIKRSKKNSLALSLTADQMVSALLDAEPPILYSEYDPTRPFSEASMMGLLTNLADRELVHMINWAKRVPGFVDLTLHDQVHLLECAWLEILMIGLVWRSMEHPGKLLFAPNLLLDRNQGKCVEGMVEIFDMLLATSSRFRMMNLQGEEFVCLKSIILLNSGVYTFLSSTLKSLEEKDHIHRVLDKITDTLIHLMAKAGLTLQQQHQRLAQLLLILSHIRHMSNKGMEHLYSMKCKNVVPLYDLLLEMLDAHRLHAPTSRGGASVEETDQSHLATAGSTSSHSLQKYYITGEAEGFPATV
Method: as §1

Structure (SMILES)	ERβ/ERα ratio [1]	EC50 [1]	half-life at 1 µM [2]	ERβ eudismic ratio [1]	ERα eudismic ratio [3]
CC1C(c2ccc(O)cc2)Cc2ccc(O)cc2C1Cc1ccccc1F (racemic) [Compound 9a, 8-(2-fluorobenzyl)-6-(4-hydroxyphenyl)-7-methyl-5,6,7,8-tetrahydronaphthalen-2-ol]	193	0.45 nM			
CCC1C(c2ccc(O)cc2)Cc2ccc(O)cc2C1Cc1ccccc1F (racemic) [Compound 9b, 8-(2-fluorobenzyl)-6-(4-hydroxyphenyl)-7-ethyl-5,6,7,8-tetrahydronaphthalen-2-ol]	77	0.35 nM	1.17 h		
CCCC1C(c2ccc(O)cc2)Cc2ccc(O)cc2C1Cc1ccccc1F (racemic) [Compound 9c, 8-(2-fluorobenzyl)-6-(4-hydroxyphenyl)-7-propyl-5,6,7,8-tetrahydronaphthalen-2-ol]	33	0.4 nM			
CC1C(c2ccc(O)cc2)Cc2ccc(O)cc2C1Cc1ccccc1 (racemic) [Compound 9d, 8-benzyl-6-(4-hydroxyphenyl)-7-methyl-5,6,7,8-tetrahydronaphthalen-2-ol]	51	0.68 nM			
CCC1C(c2ccc(O)cc2)Cc2ccc(O)cc2C1Cc1ccccc1 (racemic) [Compound 9e, 8-benzyl-7-ethyl-6-(4-hydroxyphenyl)-5,6,7,8-tetrahydronaphthalen-2-ol]	18	0.42 nM			
CC1C(c2ccc(O)cc2)Cc2ccc(O)cc2C1Cc1cccc(F)c1 (racemic) [Compound 9f, 8-(3-fluorobenzyl)-6-(4-hydroxyphenyl)-7-methyl-5,6,7,8-tetrahydronaphthalen-2-ol]	>33	3 nM			
CC1C(c2ccc(O)cc2)Cc2ccc(O)cc2C1Cc1ccc(F)cc1 (racemic) [Compound 9g, 8-(4-fluorobenzyl)-6-(4-hydroxyphenyl)-7-methyl-5,6,7,8-tetrahydronaphthalen-2-ol]	>43	2.3 nM			
CC1C(c2ccc(O)cc2)Cc2ccc(O)cc2C1Cc1cc(F)ccc1F (racemic) [Compound 9h, 8-(2,5-difluorobenzyl)-6-(4-hydroxyphenyl)-7-methyl-5,6,7,8-tetrahydronaphthalen-2-ol]	>167	0.6 nM			
CC1C(c2ccc(O)cc2)Cc2ccc(O)cc2C1Cc1c(F)cccc1F (racemic) [Compound 9i, 8-(2,6-difluorobenzyl)-6-(4-hydroxyphenyl)-7-methyl-5,6,7,8-tetrahydronaphthalen-2-ol]	>102	0.98 nM			
CC1C(c2ccc(O)cc2)Cc2ccc(O)cc2C1Cc1ccccc1C#N (racemic) [Compound 9j, 2-((7-hydroxy-3-(4-hydroxyphenyl)-2-methyl-1,2,3,4-tetrahydronaphthalen-1-yl)methyl)benzonitrile]	605	0.56 nM	0.623 h		
CCC1C(c2ccc(O)cc2)Cc2ccc(O)cc2C1Cc1ccccc1C#N (racemic) [Compound 9k, 2-((2-ethyl-7-hydroxy-3-(4-hydroxyphenyl)-1,2,3,4-tetrahydronaphthalen-1-yl)methyl)benzonitrile]	>204	0.49 nM			
CC1C(c2ccc(O)cc2)Cc2ccc(O)cc2C1Cc1ccccc1Cl (racemic) [Compound 9l, 8-(2-chlorobenzyl)-6-(4-hydroxyphenyl)-7-methyl-5,6,7,8-tetrahydronaphthalen-2-ol]	339	0.33 nM			
CCC1C(c2ccc(O)cc2)Cc2ccc(O)cc2C1Cc1ccc(O)cc1 (racemic) [Compound 9m, 7-ethyl-8-(4-hydroxybenzyl)-6-(4-hydroxyphenyl)-5,6,7,8-tetrahydronaphthalen-2-ol]	2	31 nM			
CCC1C(c2ccc(O)cc2F)Cc2ccc(O)cc2C1Cc1ccccc1F (racemic) [Compound 9o, 7-ethyl-6-(2-fluoro-4-hydroxyphenyl)-8-(2-fluorobenzyl)-5,6,7,8-tetrahydronaphthalen-2-ol]	42	0.17 nM	1.22 h		
CC1C(c2ccc(O)cc2F)Cc2ccc(O)cc2C1Cc1ccccc1F (racemic) [Compound 9p, 6-(2-fluoro-4-hydroxyphenyl)-8-(2-fluorobenzyl)-7-methyl-5,6,7,8-tetrahydronaphthalen-2-ol]	>333	0.3 nM	> 2 h		
Cc1cc(C2Cc3ccc(O)cc3C(Cc3ccccc3F)C2C)ccc1O (racemic) [Compound 9r, 8-(2-fluorobenzyl)-6-(4-hydroxy-3-methylphenyl)-7-methyl-5,6,7,8-tetrahydronaphthalen-2-ol]	>83	1.2 nM	0.965 h		
CC1C(c2ccc(O)cc2)Cc2ccc(O)c(F)c2C1Cc1ccccc1F (racemic) [Compound 9s, 1-fluoro-8-(2-fluorobenzyl)-5,6,7,8-tetrahydro-6-(4-hydroxyphenyl)-7-methylnaphthalen-2-ol]	>21	4.7 nM	1.61 h		
CCC1C(c2ccc(O)cc2)Cc2ccc(O)cc2C1Cc1ccccc1C (racemic) [Compound 9v, 7-ethyl-6-(4-hydroxyphenyl)-8-(2-methylbenzyl)-5,6,7,8-tetrahydronaphthalen-2-ol]	>63	1.6 nM	1.16 h		
CCC1C(c2ccc(O)cc2)Cc2ccc(O)cc2C1Cc1ccc(F)cc1 (racemic) [Compound 9w, 7-ethyl-8-(4-fluorobenzyl)-6-(4-hydroxyphenyl)-5,6,7,8-tetrahydronaphthalen-2-ol]	12	0.91 nM			
CC1C(c2ccc(O)cc2)Cc2ccc(O)c(F)c2C1Cc1c(F)cccc1F (racemic) [Compound 9y, 8-(2,6-difluorobenzyl)-1-fluoro-5,6,7,8-tetrahydro-6-(4-hydroxyphenyl)-7-methyl-naphthalen-2-ol]	>8	12 nM	1.83 h		
C[C@H]1[C@@H](c2ccc(O)cc2)Cc2ccc(O)cc2[C@H]1Cc1cccc(F)c1 (single isomer, unassigned) [Compound 11f]	21	1.2 nM		13	>4
C[C@H]1[C@@H](c2ccc(O)cc2)Cc2ccc(O)cc2[C@H]1Cc1ccc(F)cc1 (single isomer, unassigned) [Compound 11g]	19	1.4 nM		9	>4
C[C@H]1[C@@H](c2ccc(O)cc2)Cc2ccc(O)cc2[C@H]1Cc1c(F)cccc1F (single isomer, unassigned) [Compound 11i]	>213	0.47 nM		>212	
C[C@H]1[C@@H](c2ccc(O)cc2)Cc2ccc(O)cc2[C@H]1Cc1ccccc1C#N (single isomer, unassigned) [Compound 11j]	>714	0.14 nM	0.49 h	143	
CC[C@H]1[C@@H](c2ccc(O)cc2)Cc2ccc(O)cc2[C@H]1Cc1ccc(F)cc1 (single isomer, unassigned) [Compound 11w]	61	0.36 nM		42	0.4
C[C@@H]1[C@H](c2ccc(O)cc2)Cc2ccc(O)cc2[C@@H]1Cc1ccccc1F (single isomer, unassigned) [Compound 12a]			1.11 h		
C[C@@H]1[C@H](c2ccc(O)cc2)Cc2ccc(O)cc2[C@@H]1Cc1c(F)cccc1F (single isomer, unassigned) [Compound 12i]			1.12 h		
COc1ccccc1CC1c2cc(O)ccc2CC(c2ccc(O)cc2)C1C (centres unmarked) [Compound 8n, 6-(4-hydroxyphenyl)-8-(2-methoxybenzyl)-7-methyl-5,6,7,8-tetrahydronaphthalen-2-ol]	>40	2.5 nM			
